Literature values, collected in US20210069377A1, “TISSUE SCAFFOLD” (priority 2018, published 2021).

Conditions: at 20° C. and 1 atm

solubility: about 375 g/100 g water
Structure (SMILES): O=C(CO)[C@@H](O)[C@H](O)[C@H](O)CO [Fructose]
